From US20040235809A1, “Epoxy steroidal aldosterone antagonist and beta-adremergic antagonist combination therepy for treatment of congestive heart failure” (priority 2000, published 2004)

How the values were obtained:
[1] = tested on: hypertensive rats; assay: Assay C: hypertensive rat model (renal artery clip); type: in vivo; settings: combination of beta-adrenergic antagonist and eplerenone versus either component alone, after 12 to 24 weeks
Description: Assay “C”: Hypertensive Rat Model Male rats are made hypertensive by placing a silver clip with an aperture of 240 microns on the left renal artery, leaving the contralateral kidney untouched. Sham controls undergo the same procedure but without attachment of the clip. One week prior to the surgery, animals to be made hypertensive are divided into separate groups and drug treatment is begun. […] After 12 to 24 weeks, systolic and diastolic blood pressure, left ventricular end diastolic pressure, left ventricular dP/dt, and heart rate are evaluated. The hearts are removed, weight, measured and fixed in formalin. Collagen content of heart sections are evaluated using computerized image analysis of picrosirius stained sections.

[2] = tested on: rats with coronary artery ligation; assay: Assay D: myocardial infarction rat model; type: in vivo; settings: combination of beta-adrenergic antagonist and eplerenone versus either component alone, after six weeks
Description: Assay “D” Myocardial Infarction Rat Model: male rats are anesthetized and the heart is exteriorized following a left sided thoracotomy. The left anterior descending coronary artery is ligated with a suture. The thorax is closed and the animal recovers. Sham animals have the suture passed through without ligation. One week prior to the surgery, animals to undergo infraction are divided into separate groups and drug treatment is begun. […] After six weeks, systolic and diastolic blood pressure, left ventricular end diastolic pressure, left ventricular dP/dt, and heart rate are evaluated. The hearts are removed, weight, measured and fixed in formalin. Collagen content of heart sections are evaluated using computerized image analysis of picrosirius stained sections.

[3] = tested on: patients with mild to moderate hypertension; assay: Example 19 clinical study: eplerenone versus placebo co-administered with a calcium-channel blocker; type: in vivo, human
Description: This multicenter, randomized, double-blind, placebo-controlled, placebo run-in, parallel group trial involving a minimum of 120 randomized patients with hypertension (seated diastolic blood pressure [seDBP]≧95 mmHg and <110 mmHg and seated systolic BP [seSBP]<180 mmHg while taking a CCB) will consist of a one- to two-week pretreatment screening period followed by a two- to four-week single-blind placebo run-in period and an 8-week double-blind treatment period. Eligible patients will be patients currently receiving a CCB as part of their antihypertensive medication. […] The dose will not be changed for patients with adequate BP control. […] If the dose has been increased at Week 2, the patient will be reassessed at Week 6. […] If BP is uncontrolled at Week 6 and the dose has been increased at Week 2 or Week 4, the patient must be withdrawn from the study. If symptomatic hypotension (i.e., lightheadedness, dizziness, or syncope associated with low BP) occurs at any time during the study, or if DBP is ≧110 mmHg or SBP is ≧180 mmHg at any time during the trial, the patient must be withdrawn. Patients will receive study medication for a total of 8 weeks.
Patients will return to the clinic for evaluations at Weeks 0 (baseline), 2, 4, 6, 8, and 9. Heart rate, BP, adverse events and concomitant medication will be assessed at each visit. Hematology and biochemistry evaluations and urinalysis for safety will be at Weeks 0, 8, and 9. Serum potassium levels will be determined at Weeks 0 (baseline), 2, 4, 6, 8, and 9. Plasma renin, serum aldosterone, and plasma cortisol will be determined at Weeks 0 and 8. A 12-lead electrocardiogram and physical examination will be done at screening and at Week 9.
The study will consist of a one- to two-week pretreatment screening period followed by a two- to four-week single-blind placebo run-in treatment period, prior to randomization to an eight-week double-blind treatment period.
Eligible patients will be either currently receiving a CCB alone, or receiving a CCB as part of their antihypertensive medication. […] The dose will not be changed for patients with adequate BP control. […] If the dose has been increased at Week 2, the patient will be reassessed at Week-6. The dose of study medication will not be changed for patients with adequate BP control. […] If BP is uncontrolled at Week 6 and the dose has been increased at Week 2 or Week 4, the patient must be withdrawn from the study. The dose of study medication will not be changed for patients with adequate BP control. If symptomatic hypotension (i.e., lightheadedness, dizziness, or syncope associated with low BP) occurs at any time during the study, or if DBP is ≧110 mmHg or SBP is ≧180 mmHg at any time during the study, the patient must be withdrawn. Patients will receive study medication for a total of eight weeks.
Patients will return to the clinic for evaluations at Weeks 0, 2, 4, 6, 8, and 9. Heart rate, BP, adverse events and concomitant medication will be assessed at each visit. Hematology and biochemistry evaluations and urinalysis for safety will be at Weeks 0, 8, and 9. Serum potassium levels will be determined at Weeks 0, 2, 4, 6, 8, and 9. Plasma renin, serum aldosterone, and plasma cortisol will be determined at Weeks 0 and 8. […]
BP evaluations will be analyzed at each visit using two-way analysis of covariance (ANCOVA) with the baseline measurement as the covariate and treatment and center as factors. […]

[4] = tested on: animal models; settings: cited from earlier work
[5] = eplerenone plus CCB compared to CCB and placebo

Row | SMILES | cardiac performance [1] | cardiac performance [2] | systolic blood pressure ([3]; eplerenone 50-100 mg plus fixed dose CCB versus CCB plus placebo, eight weeks) | serious adverse events ([3]; eplerenone added to CCB therapy) | active renin levels [3, 5] | aldosterone levels [3, 5] | change in mean diastolic blood pressure ([3]; eplerenone plus CCB versus CCB plus placebo, eight weeks) | myocardial fibrosis ([4]; D. Klug et al 1993) | fibrosis ([4]; irrespective of left ventricular hypertrophy and hypertension, C. G. Brilla et al 1993)
1 | COC(=O)[C@@H]1CC2=CC(=O)CC[C@]2(C)[C@@]23O[C@@H]2C[C@@]2(C)[C@@H](CC[C@@]24CCC(=O)O4)[C@H]13 [eplerenone, Pregn-4-ene-7,21-dicarboxylic acid, 9,11-epoxy-17-hydroxy-3-oxo-,γ-lactone, methyl ester, (7α,11α,17β)-] | improvements in cardiac performance | improvements in cardiac performance | significant reduction | no serious adverse events | greater increase | greater increase | greater for the dual therapy group, compared to monotherapy, but this difference did not reach statistical significance |  | 
2 | CC(=O)S[C@@H]1CC2=CC(=O)CC[C@]2(C)[C@H]2CC[C@@]3(C)[C@@H](CC[C@@]34CCC(=O)O4)[C@H]12 [spironolactone] |  |  |  |  |  |  |  | prevents myocardial fibrosis | prevent fibrosis
